In patent US20110092515A1, “MELT GRANULATION PROCESS” (priority 2008, published 2011):

Assay: Relative solubility of the physical forms
Format: physicochemical
Settings: monohydrate as impurity in the anhydrous form

solubility compared with the anhydrous form: less soluble
SMILES: CC(O)C(=O)O.CN1CCN(c2ccc3nc(-c4c(N)c5c(F)cccc5[nH]c4=O)[nH]c3c2)CC1 [monohydrate form, 4-amino-5-fluoro-3-[5-(4-methylpiperazin-1-yl)-1H-benzimidazol-2-yl]quinolin-2(1H)-one lactic acid salt]
